Test results taken from patent US20240082212A1, “USE OF MDMA FOR TREATMENT OF STRESS-RELATED DISORDERS” (priority 2022, published 2024).

What was measured:
C57BL/6J mice = test: Head twitch response (HTR); format: in vivo, mouse; details: 30 minutes after injection
Protocol: Male C57BL/6J mice at 6-8 weeks of age were purchased from Jackson Laboratories and housed four per cage in a climate and humidity-controlled room in a vivarium at the University of California, San Diego. The room operated on a reverse light cycle (lights on at 1900 h, off at 0700 h) with food and water available ad libitum, except during testing. All testing was performed during 1000 h and 1800 h. After a minimum of 1 week acclimation to the housing facility, mice were anesthetized using a mixture of ketamine (100 mg/kg IP) and xylazine (10 mg/kg IP). Under deep anesthesia, an incision was made in the scalp and a small neodymium magnet (4.57 mm×4.57 mm×2.03 mm) was attached to the cranium using cyanoacrylate and dental cement. After at least a 2-week recovery period, the mouse was removed from the home cage and injected intraperitoneally with the test article or vehicle (0.9% sterile saline). Immediately, the mouse was placed in a glass cylinder surrounded by a magnetometer coil and the head twitch response (HTR) was assessed for 30 minutes (Halberstadt and Geyer, 2013). The output of the coil was recorded using a Powerlab/8SP with LabChart v.7.3.2 (ADInstruments). Coil voltage was amplified, low-pass filtered (2-10 kHz cut-off frequency) to remove interference, digitized and sampled at 20 kHz. Head twitches were identified using a validated technique based on artificial intelligence (Halberstadt, 2020). Events in the recordings were transformed into a visual representation in the time-frequency domain and deep features were extracted using the pretrained convolutional neural network ResNet-50, and the images were subsequently classified using a Support Vector Machine algorithm.
Test articles (R,S-MDA, R(−)-MDA, S-(+)MDA), R,S-MDMA, R(−)-MDMA and S(+)-MDMA) were supplied by the NIDA Drug Supply Program as neat powders. Racemic MDA and MDMA and their enantiomers were dissolved in saline and injected IP at a volume of 5 mL/kg. Each dose was calculated based on the salt form of the compounds. For each treatment condition, six groups of mice (n=5-6/group) were treated with vehicle or the test drug (0.1, 0.3, 1, 3, or 10 mg/kg) and HTR assessed for 30 minutes immediately following injections. To avoid carryover effects, each treatment condition was performed at least seven days apart. Total number of mice used for the experiment was 63.

Serotonin 5-HT2B = Serotonin 5-HT2B (Homo sapiens, UniProt P41595); test: Eurofins Panlabs radioligand binding panel, serotonin 5-HT2B; details: for IC50: IC50, 10 half-log concentrations; for IC50 / Ki: 0.3 nM to 10 μM, duplicate; for Ki: 10 half-log concentrations
cortical neurons = test: Neurite outgrowth in embryonic rat cortical neuron cultures; format: cell-based; details: 3 days
Description: Female Wistar rats of 17 days gestation were killed by cervical dislocation and the fetuses (typically 6 to 8 in number) were removed from the uteri. Fetal brains were placed in ice-cold medium of Leibovitz (L15, Gibco, France). Cortex was dissected and meninges were carefully removed. The cortical neurons were dissociated by trypsinization (trypsin-EDTA, Gibco) in the presence of DNAse I (Roche, France). The reaction was stopped by addition of Dulbecco's Modified Eagle Medium (DMEM; Gibco) with 10% of fetal bovine serum (FBS; Gibco). The suspension was triturated with a 10-ml pipette and a 21-gauge needle syringe and centrifuged. The pellet of dissociated cells was resuspended in a medium consisting of Neurobasal (Gibco) supplemented with 2% B27 supplement (Gibco), 0.5 mM L-Glutamine (Gibco), and an antibiotic-antimycotic mixture. Viable cells were counted in a Neubauer cytometer and cells were seeded in 96-well plates (Costar) precoated with poly-L-lysine at 10,000 cells/well. […] Stock solutions were prepared in sterile water at 10 mM and stored at −20° C. until used. Further dilutions were prepared in culture in the medium on the day of the treatment. 0.1% Sterile water was present in all tested conditions.
The experimental protocol was performed in two independent cultures (i.e., from two different pregnant rats). For each culture, each condition was tested in sextuplet (6 wells per condition per culture for a total of 12 wells per condition). […] After three days of plating and compound treatment (Day 3), cultures were fixed with paraformaldehyde in phosphate buffered saline at 4° C. (PBS, 4%, Sigma). All subsequent steps were performed at room temperature. Cells were successively permeabilized for 30 minutes using 0.1% triton, saturated with PBS containing 3% bovine serum albumin (BSA) and incubated for 1 hour with anti-beta III tubulin antibody (T5168, Sigma). […] Finally, nuclei were stained with 4′-6-diamidino-2-phenylindole (DAPI). After rinsing the cells with PBS, the plate was imaged and neurite networks were examined and analyzed using a High-Content Screening platform (CellInsight CXS, Thermo Scientific) with integrated Photometrics high-resolution fluorescent camera, Olympus objective (10×) and HCS Studio Cell Analysis Software. Approximately 2,000 neurons per well were analyzed using a validated cortex neuron outgrowth algorithm that utilizes parameters optimized for analysis of embryonic rat cortical neuron cultures. The HCS Studio Cell Analysis Software output included values for neurite total count (#), neurite total length (μm) and total number of branch points (#) for each of the 6 wells per culture. The evaluation of neurite outgrowth was performed using the average number of neurites per neuron (#), the average of total neurite length per neuron (μm) and the average number of branch points per neuron (#) across 12 wells. Data also was transformed to percent (%) of the average vehicle control value. Results were expressed as mean (±s.e.m.) of the transformed (% of vehicle control) data. Statistical analyses were performed on transformed percent of the average vehicle control data for each measure for each test article using one-way analysis of variance (Anova, StatView). Where applicable, Dunnett's test was used for multiple pairwise comparisons to the negative control (vehicle) condition. […] The level of significance was set at p value less than or equal to 0.05 (*p<0.05).

[1] = 10 μM, vs 0.1% sterile water vehicle
[2] = any tested concentration (0.001 to 10000 nM), vs vehicle

Sequence of Serotonin 5-HT2B (P41595 whole entry): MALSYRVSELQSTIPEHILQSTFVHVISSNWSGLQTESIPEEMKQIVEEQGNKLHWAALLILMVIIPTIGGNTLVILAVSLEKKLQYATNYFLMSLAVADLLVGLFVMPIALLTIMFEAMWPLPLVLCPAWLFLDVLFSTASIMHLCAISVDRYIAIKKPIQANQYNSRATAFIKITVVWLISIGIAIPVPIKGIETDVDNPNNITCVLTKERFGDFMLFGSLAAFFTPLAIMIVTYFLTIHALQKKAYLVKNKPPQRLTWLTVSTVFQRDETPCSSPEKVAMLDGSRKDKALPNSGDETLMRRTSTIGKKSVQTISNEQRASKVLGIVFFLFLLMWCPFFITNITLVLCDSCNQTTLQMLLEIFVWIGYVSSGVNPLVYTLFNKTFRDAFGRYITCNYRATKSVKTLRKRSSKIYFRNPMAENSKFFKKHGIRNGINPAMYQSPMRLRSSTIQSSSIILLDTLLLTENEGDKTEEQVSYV

CNC(C)Cc1ccc2c(c1)OCO2 (single isomer, unassigned) [R-MDMA, R(−)-3,4-methylenedioxymethamphetamine]
head twitch response (HTR) compared to control (vehicle) (C57BL/6J mice; 3 mg/kg IP): increase in HTR | inhibition at 10 µM (Serotonin 5-HT2B; 10 uM, read-out: % inhibition of binding or activity): 79% | IC50 (Serotonin 5-HT2B): 1.4 µM | Ki (Serotonin 5-HT2B): 0.89 µM | neurite number (#) (cortical neurons; 0.0001 μM, vs 0.1% sterile water vehicle): significantly increased | neurite number (#) (cortical neurons; [1]): significantly increased | neurite total length (μm) (cortical neurons; [1]): significantly increased | total number of branch points (#) (cortical neurons; [1]): significantly increased

CNC(C)Cc1ccc2c(c1)OCO2 (racemic) [Racemic MDMA, 3,4-methylenedioxymethamphetamine]
head twitch response (HTR) compared to control (vehicle) (C57BL/6J mice; 3 mg/kg IP, listed as R,S-MDMA): decrease in HTR | % inhibition of binding or activity (Serotonin 5-HT2B; 10 uM): 85% | neurite number (#) (cortical neurons; [1]): significantly increased | neurite total length (μm) (cortical neurons; [1]): significantly increased | total number of branch points (#) (cortical neurons; [1]): significantly increased

CNC(C)Cc1ccc2c(c1)OCO2 (single isomer, unassigned) [S-MDMA, S(+)-MDMA]
head twitch response (HTR) compared to control (vehicle) (C57BL/6J mice; 3 mg/kg IP): reduction of HTR | head twitch response (HTR) compared to control (vehicle) (C57BL/6J mice; 10 mg/kg IP): reduction of HTR | IC50 (Serotonin 5-HT2B): 12 µM | Ki (Serotonin 5-HT2B): 7.65 µM | neurite number (#) (cortical neurons; [2]): did not significantly alter | neurite total length (μm) (cortical neurons; [2]): did not significantly alter | total number of branch points (#) (cortical neurons; [2]): did not significantly alter

C[C@H](N)Cc1ccc2c(c1)OCO2 [S-MDA, S(+)-MDA]
head twitch response (HTR) compared to control (vehicle) (C57BL/6J mice; 10 mg/kg IP): reduction of HTR | % inhibition of binding or activity (Serotonin 5-HT2B; 10 uM): 82% | neurite number (#) (cortical neurons; [2]): did not significantly alter | neurite total length (μm) (cortical neurons; [2]): did not significantly alter | total number of branch points (#) (cortical neurons; [2]): did not significantly alter
